The text below walks through data of PubChem BioAssay AID1159565 (GlaxoSmithKline (GSK), 2015).

The assay concerns T. cruzi-infected H9C2 cardiomyocytes, high-content imaging. The assay is described as follows: anti-T. cruzi activity in infected cardiomyocytes – imaging, H9C2 host cardiomyocytes, host toxicity (AID 1159565).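 Note: infected cells incubated 72 h after plating.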
Setting [1] is: measured here: H9C2 host cell toxicity.
Where [2] appears, read: measured here: amastigotes per cell.

The source made the active and inactive calls. The rule behind the calls is not given here.

What is called IC50 is the concentration that inhibits the measured activity by half. Consider `O=C(Nc1ccc(S(=O)(=O)N2CCCC2)cc1)c1ccc([N+](=O)[O-])s1`, for which the IC50 was 200 nM. Under setting [1], the IC50 came out at 1600 nM. In addition, the IC50 under setting [2] came to 200 nM.
Turning to `O=C(NCCc1ccccc1Cl)c1cccn1-c1cccnc1`, the IC50 was 500 nM. The same compound had an IC50 under setting [1] above 50000 nM. The compound also gave an IC50 under setting [2] of 500 nM.
As to `O=C(COc1ncnc2cc([N+](=O)[O-])ccc12)NC(=O)NC1CCCCC1`, the IC50 is 1000 nM. The IC50 under setting [1] was above 50000 nM. This compound also yielded an IC50 under setting [2] of 500 nM.
Take `Cc1ccc(NC(=O)c2ccnc(N3CCCC3)c2)cc1-c1cc(C(N)=O)ccc1C`: the IC50 was 10000 nM. The concentration for half-maximal inhibition (IC50) under setting [1] was above 50000 nM. The same compound showed an IC50 under setting [2] of 3200 nM.
Consider `CC(=O)Nc1cccc(Nc2ncnc3nc[nH]c23)c1`, for which the half-maximal inhibitory concentration (IC50) is 40000 nM. This compound also yielded an IC50 under setting [1] above 50000 nM. The compound also showed an IC50 under setting [2] of 25000 nM.
For `O=C(NC(CO)c1ccc(F)cc1)c1ccc(-c2c[nH]c3ncccc23)s1` (centres undefined), the IC50 was 16000 nM. The IC50 under setting [1] stood at 4000 nM. This compound showed an IC50 under setting [2] of 13000 nM.
The matching figures for `CN(Cc1cccnc1)Cc1ccc(N2CCN(C(=O)C3(c4ccc(Cl)cc4)CC3)CC2)nc1`: 1600 nM, above 50000 nM and 1300 nM.
The matching figures for `CN(C)Cc1cccc(Nc2nccc(-c3ccc(NCCN)c(C#N)c3)n2)c1`: 10000 nM, 2000 nM and 1600 nM.
As to `COc1ccc(Nc2nccc(N(C)c3n[nH]c4c(F)cccc34)n2)cc1S(C)(=O)=O`, the 50% inhibitory concentration (IC50) is 4000 nM. The concentration for half-maximal inhibition (IC50) under setting [1] came out at 7900 nM. Also, the half-maximal inhibitory concentration (IC50) under setting [2] is 2000 nM.
Taken in the same sequence, the figures for `O=C(NC1C(=O)N(c2ccccc2)C1c1cccnc1)c1ccc(Cl)s1` (centres undefined) were 50 nM, above 50000 nM and 40 nM.
For the compound `Cc1[nH]n2c(=O)c3c(nc2c1-c1ccc(F)cc1)CCCC3`, the IC50 is 2000 nM. Further, under setting [1], the IC50 was above 50000 nM. In addition, the half-maximal inhibitory concentration (IC50) under setting [2] was determined as 790 nM.
The matching figures for `O=C1CN(C2CCCc3c(OCc4ccncc4)cccc32)C(=O)N1C1CCCCC1` (centres undefined): 16 nM, above 50000 nM and 13 nM.
The matching figures for `Cc1cccc(Nc2nc(-c3ccccn3)cs2)n1`: 1000 nM, 630 nM and 790 nM.
`CC(C)(C)C(=O)Nc1cc(C2CC2)nn1-c1nc2c(c(=O)[nH]1)CCCC2`: the IC50 was 500 nM. The compound also showed a 50% inhibitory concentration (IC50) under setting [1] of 2000 nM. The compound also showed an IC50 under setting [2] of 130 nM.
Take `OCC1CCCCN1c1cc(-c2ccccn2)nc(Nc2ccccc2)n1` (centres undefined): the concentration for half-maximal inhibition (IC50) is 4000 nM. The same compound yielded an IC50 under setting [1] of 500 nM. Under setting [2], the IC50 was 2000 nM.
The matching figures for `Cc1cc(NC(=O)c2ccc([N+](=O)[O-])s2)ccc1Br`: 400 nM, 2500 nM and 250 nM.
`Cc1[nH]nc(Nc2ccnc3[nH]ccc23)c1C`: the IC50 is > 50000 nM (inactive). The half-maximal inhibitory concentration (IC50) under setting [1] was above 50000 nM. The compound further showed an IC50 under setting [2] above 50000 nM.
`CCc1ccccc1[C@@H](C)NC(=O)c1cnc2c(cnn2CC)c1NC1CCN(C(N)=O)CC1`: the IC50 was > 50000 nM (inactive). This compound had a half-inhibitory concentration (IC50) under setting [1] above 50000 nM. Under setting [2], this compound gave a 50% inhibitory concentration (IC50) of 40000 nM.
Taken in the same sequence, the figures for `O=C(c1ccc(OCCCc2cnc[nH]2)cc1)C1CC1` were 1600 nM, above 50000 nM and 1300 nM.
Turning to `O=C(Nc1cccc(S(=O)(=O)Nc2ccc(Br)cc2)c1)c1ccc([N+](=O)[O-])s1`, the 50% inhibitory concentration (IC50) is 130 nM. For the same compound, the IC50 under setting [1] turned out to be 2500 nM. The compound further yielded a half-maximal inhibitory concentration (IC50) under setting [2] of 100 nM.
Taken in the same sequence, the figures for `O=C1OCc2ccc(Nc3nccc(-c4cnn5ncccc45)n3)cc21` were 63 nM, 25 nM and 32 nM.
Regarding `CCOc1ccc(NC(=O)c2ccc(NC(=O)NC3CCCCC3)cc2)cc1`, the IC50 was > 50000 nM (inactive). Moreover, the IC50 under setting [1] was above 50000 nM. Besides, the half-maximal inhibitory concentration (IC50) under setting [2] was above 50000 nM.
Consider `O=C(CN(Cc1ccccn1)Cc1ccccn1)NCc1ccc2c(c1)OCO2`, for which the 50% inhibitory concentration (IC50) was 13000 nM. For the same compound, under setting [1], the concentration for half-maximal inhibition (IC50) was above 79000 nM. The compound further gave a half-maximal inhibitory concentration (IC50) under setting [2] of 6300 nM.
Taken in the same sequence, the figures for `Cc1ccccc1OCC(=O)N1CCCN(c2cccnn2)CC1` were 630 nM, above 50000 nM and 500 nM.
Taken in the same sequence, the figures for `O=C(Nc1ccccc1C(=O)Nc1ccccn1)c1ccco1` were > 50000 nM (inactive), above 50000 nM and above 50000 nM.
For the compound `Cc1nc(-c2nc(NCc3ccc(Cl)cc3)c3cccnc3c2O)n[nH]1`, the half-maximal inhibitory concentration (IC50) is 790 nM. In addition, the IC50 under setting [1] was determined as 25000 nM. For the same compound, the IC50 under setting [2] was 1300 nM.
The matching figures for `OCCCNc1nc(Nc2ccncc2)nc2ccccc12`: 1300 nM, above 50000 nM and 200 nM.
The matching figures for `Cc1ccc(Nc2nc(N)nc(CNC(c3nc4ccccc4[nH]3)C(C)C)n2)cc1` (centres undefined): 7900 nM, above 50000 nM and 5000 nM.
